{"source": "PubChem BioAssay AID1259407", "about": "(Chemical Carcinogenesis Research Information System (CCRIS), 2018)", "tested_on": "CCRIS mutagenicity, Ames/micronucleus/aberration tests", "test": "CCRIS mutagenicity studies", "note": "Active and inactive are the calls of the source. No rule for the calls is given here."}
{"smiles": "ClC(Cl)Br", "values": [{"measurement": "mutagenic call", "setting": "Test System: AMES SALMONELLA TYPHIMURIUM, Strain/Indicator: TA98, Metabolic Activation: HAMSTER, LIVER, S-9, AROCLOR 1254, Method: PREINCUBATION", "value": "inactive; negative"}, {"measurement": "mutagenic call", "setting": "Test System: AMES SALMONELLA TYPHIMURIUM, Strain/Indicator: TA98, Metabolic Activation: NONE, Method: PREINCUBATION", "value": "inactive; negative"}, {"measurement": "mutagenic call", "setting": "Test System: AMES SALMONELLA TYPHIMURIUM, Strain/Indicator: TA98, Metabolic Activation: NONE, Method: STANDARD PLATE", "value": "inactive; negative"}, {"measurement": "mutagenic call", "setting": "Test System: AMES SALMONELLA TYPHIMURIUM, Strain/Indicator: TA98, Metabolic Activation: RAT, LIVER, S-9, AROCLOR 1254, Method: PREINCUBATION", "value": "inactive; negative"}, {"measurement": "mutagenic call", "setting": "Test System: AMES SALMONELLA TYPHIMURIUM, Strain/Indicator: TA100, Metabolic Activation: HAMSTER, LIVER, S-9, AROCLOR 1254, Method: PREINCUBATION", "value": "inactive; negative"}, {"measurement": "mutagenic call", "setting": "Test System: AMES SALMONELLA TYPHIMURIUM, Strain/Indicator: TA100, Metabolic Activation: NONE, Method: DESICCATOR", "value": "active; positive"}, {"measurement": "mutagenic call", "setting": "Test System: AMES SALMONELLA TYPHIMURIUM, Strain/Indicator: TA100, Metabolic Activation: NONE, Method: FLUCTUATION TEST", "value": "inactive; negative"}, {"measurement": "mutagenic call", "setting": "Test System: AMES SALMONELLA TYPHIMURIUM, Strain/Indicator: TA100, Metabolic Activation: NONE, Method: PREINCUBATION", "value": "inactive; negative"}, {"measurement": "mutagenic call", "setting": "Test System: AMES SALMONELLA TYPHIMURIUM, Strain/Indicator: TA100, Metabolic Activation: NONE, Method: STANDARD PLATE", "value": "inactive; negative"}, {"measurement": "mutagenic call", "setting": "Test System: AMES SALMONELLA TYPHIMURIUM, Strain/Indicator: TA100, Metabolic Activation: RAT, LIVER, S-9, AROCLOR 1254, Method: FLUCTUATION TEST", "value": "inactive; negative"}, {"measurement": "mutagenic call", "setting": "Test System: AMES SALMONELLA TYPHIMURIUM, Strain/Indicator: TA100, Metabolic Activation: RAT, LIVER, S-9, AROCLOR 1254, Method: PREINCUBATION", "value": "inactive; negative"}, {"measurement": "mutagenic call", "setting": "Test System: AMES SALMONELLA TYPHIMURIUM, Strain/Indicator: TA104, Metabolic Activation: NONE, Method: STANDARD PLATE", "value": "inactive; negative"}, {"measurement": "mutagenic call", "setting": "Test System: AMES SALMONELLA TYPHIMURIUM, Strain/Indicator: TA104, Metabolic Activation: RAT, LIVER, S-9, AROCLOR 1254, Method: STANDARD PLATE", "value": "active; positive"}, {"measurement": "mutagenic call", "setting": "Test System: AMES SALMONELLA TYPHIMURIUM, Strain/Indicator: TA1535 (GST+), Metabolic Activation: NONE, Method: STANDARD PLATE", "value": "active; positive"}, {"measurement": "mutagenic call", "setting": "Test System: AMES SALMONELLA TYPHIMURIUM, Strain/Indicator: TA1535 (GST-), Metabolic Activation: NONE, Method: STANDARD PLATE", "value": "inactive; negative"}, {"measurement": "mutagenic call", "setting": "Test System: AMES SALMONELLA TYPHIMURIUM, Strain/Indicator: TA1535, Metabolic Activation: HAMSTER, LIVER, S-9, AROCLOR 1254, Method: PREINCUBATION", "value": "inactive; negative"}, {"measurement": "mutagenic call", "setting": "Test System: AMES SALMONELLA TYPHIMURIUM, Strain/Indicator: TA1535, Metabolic Activation: NONE, Method: PREINCUBATION", "value": "inactive; negative"}, {"measurement": "mutagenic call", "setting": "Test System: AMES SALMONELLA TYPHIMURIUM, Strain/Indicator: TA1535, Metabolic Activation: RAT, LIVER, S-9, AROCLOR 1254, Method: PREINCUBATION", "value": "inactive; negative"}, {"measurement": "mutagenic call", "setting": "Test System: AMES SALMONELLA TYPHIMURIUM, Strain/Indicator: TA1535, Metabolic Activation: RAT, LIVER, S-9, AROCLOR 1254, Method: STANDARD PLATE", "value": "inactive; negative"}, {"measurement": "mutagenic call", "setting": "Test System: AMES SALMONELLA TYPHIMURIUM, Strain/Indicator: TA1537, Metabolic Activation: HAMSTER, LIVER, S-9, AROCLOR 1254, Method: PREINCUBATION", "value": "inactive; negative"}, {"measurement": "mutagenic call", "setting": "Test System: AMES SALMONELLA TYPHIMURIUM, Strain/Indicator: TA1537, Metabolic Activation: NONE, Method: PREINCUBATION", "value": "inactive; negative"}, {"measurement": "mutagenic call", "setting": "Test System: AMES SALMONELLA TYPHIMURIUM, Strain/Indicator: TA1537, Metabolic Activation: NONE, Method: STANDARD PLATE", "value": "active; positive"}, {"measurement": "mutagenic call", "setting": "Test System: AMES SALMONELLA TYPHIMURIUM, Strain/Indicator: TA1537, Metabolic Activation: RAT, LIVER, S-9, AROCLOR 1254, Method: PREINCUBATION", "value": "inactive; negative"}, {"measurement": "mutagenic call", "setting": "Test System: AMES SALMONELLA TYPHIMURIUM, Strain/Indicator: TA1537, Metabolic Activation: RAT, LIVER, S-9, AROCLOR 1254, Method: STANDARD PLATE", "value": "inactive; negative"}, {"measurement": "mutagenic call", "setting": "Test System: MOUSE LYMPHOMA, Strain/Indicator: L5178Y (TK+/TK-), Metabolic Activation: NONE, Method: MICROWELL", "value": "inactive; negative"}, {"measurement": "mutagenic call", "setting": "Test System: MOUSE LYMPHOMA, Strain/Indicator: L5178Y (TK+/TK-), Metabolic Activation: NONE, Method: SUSPENSION/PLATE", "value": "inactive; negative"}, {"measurement": "mutagenic call", "setting": "Test System: MOUSE LYMPHOMA, Strain/Indicator: L5178Y (TK+/TK-), Metabolic Activation: RAT, LIVER, S-9, AROCLOR 1254, Method: SUSPENSION/PLATE", "value": "active; positive"}, {"measurement": "mutagenic call", "setting": "Test System: MOUSE LYMPHOMA, Strain/Indicator: L5178Y (TK+/TK-), Metabolic Activation: S-9, Method: MICROWELL", "value": "active; positive"}, {"measurement": "mutagenic call", "setting": "Test System: UDS RAT HEPATOCYTES, Strain/Indicator: THY INCORP, Metabolic Activation: NONE, Method: AUTORADIOGRAPHY", "value": "inactive; negative"}]}
